Experimental data as given in patent US9919055B2, “Sugar-linker-drug conjugates” (Arizona Board of Regents on Behalf of Arizona State …, priority 2013, dated 2018).

Assays:
DU 145(MTX) cells = experiment: Sensitivity of methotrexate resistant cell line DU 145(MTX) versus parental DU 145 cells; type: cell-based, human
Procedure: (§1) A methotrexate resistant cell line. DU 145(MTX) was developed from parental DU 145 cells by exposure to increasing concentrations (starting at 0.1 μM) of methotrexate over a period of 6 months. DU 145(MTX) was at least 250-fold less sensitive to methotrexate than parental cells.

[1] = system: MTX Resistant DU-145 Cells; experiment: In vitro cell growth inhibition test (MTT assay, cell viability); type: cell-based, human; settings: 72 h incubation, DU-145-MTX cells
Procedure: as §1
The human prostate cancer cell lines DU-145 (ATCC) was cultured in MEM media with glutamine and supplemented with 10% fetal bovine serum, penicillin (100 U/mL) and streptomycin ([…]) in air enriched with 5% CO2 at 37° C.
Cell viability was determined using the MTT assay. Briefly, cells were seeded in 96-well plates at a density of 3000 cells per well in 0.1 mL MEM media supplemented with 10% fetal bovine serum, and test compounds were concomitantly added in a concentration range of 0.001-1000 μM. Dilutions were made using the culture medium from 1 mM stock solutions of the drugs in anhydrous DMSO. Controls were treated with an equivalent amount of solvent, diluted as above, to assess the absence of toxicity due to the solvent. After 72 h of incubation, 15 μL of 5 mg mL^−1 MTT dye (3-[4,5-dimethylthiazol-2-yl]-2,5-diphenyltetrazolium bromide, sigma) was added for 4 h at 37° C. Media was removed and the monolayer suspended in 0.15 mL of DMSO, after which the absorbance at 570 nm was measured using a microplate reader. The control value corresponding to untreated cells was defined as 100% and the viability of treated samples was expressed as a percentage of the control.

In the case of CN(Cc1cnc2nc(N)nc(N)c2n1)c1ccc(C(=O)N[C@@H](CCC(=O)O)C(=O)O)cc1 [Methotrexate (MTX), Methotrexate, reference compound], the “fold less sensitive to methotrexate than parental cells” value (DU 145(MTX) cells) is reported as “at least 250 fold”, the “DU-145-MTX (% cell survival)” value ([1]; 100 nM test compound) is reported as 82% and the “DU-145-MTX (% cell survival)” value ([1]; 1 μM test compound) is reported as 84%. For the same molecule, the “DU-145-MTX (% cell survival)” value ([1]; 10 μM test compound) was 83%.
